These results are taken from ChEMBL document CHEMBL4024737, “Iodine catalyzed three component synthesis of 1-((2-hydroxy naphthalen-1-yl)(phenyl)(methyl))pyrrolidin-2-one derivatives: Rationale as potent PI3K inhibitors and anticancer agents” (Bioorg Med Chem Lett, 2017).

Calls of active or inactive are those of the source. The rule behind the calls is not given here. Some results are limits rather than exact numbers.

Experiment [1] concerns the target T1, Phosphatidylinositol 4,5-bisphosphate 3-kinase catalytic subunit alpha isoform (Homo sapiens, UniProt P42336). Briefly: Inhibition of PI3K p110alpha (unknown origin) using PIP2 as substrate preincubated for 10 mins followed by substrate addition measured after 1 hr.
Experiment [2] has as its system MCF7. Briefly: Growth inhibition of human MCF7 cells by MTT assay. In kind it is functional, cell-based. The following applies: for IC50: Homo sapiens, MCF7. On the technique in general: Formazan colour is commonly taken as a measure of viable cells.
For experiment [3], the system named is HCT-116. Briefly: Growth inhibition of human HCT116 cells by MTT assay. Type of experiment: functional, cell-based. The following applies: for IC50: Homo sapiens, HCT-116.
The target in experiment [4] is T1, Phosphatidylinositol 4,5-bisphosphate 3-kinase catalytic subunit alpha isoform. Briefly: Inhibition of PI3K p110alpha (unknown origin) assessed as residual activity using PIP2 as substrate preincubated for 10 mins followed by substrate addition measured after 1 hr relative to control. Also on record: concentration or dose not given beside the values.

T1 sequence (P42336 whole entry, canonical isoform): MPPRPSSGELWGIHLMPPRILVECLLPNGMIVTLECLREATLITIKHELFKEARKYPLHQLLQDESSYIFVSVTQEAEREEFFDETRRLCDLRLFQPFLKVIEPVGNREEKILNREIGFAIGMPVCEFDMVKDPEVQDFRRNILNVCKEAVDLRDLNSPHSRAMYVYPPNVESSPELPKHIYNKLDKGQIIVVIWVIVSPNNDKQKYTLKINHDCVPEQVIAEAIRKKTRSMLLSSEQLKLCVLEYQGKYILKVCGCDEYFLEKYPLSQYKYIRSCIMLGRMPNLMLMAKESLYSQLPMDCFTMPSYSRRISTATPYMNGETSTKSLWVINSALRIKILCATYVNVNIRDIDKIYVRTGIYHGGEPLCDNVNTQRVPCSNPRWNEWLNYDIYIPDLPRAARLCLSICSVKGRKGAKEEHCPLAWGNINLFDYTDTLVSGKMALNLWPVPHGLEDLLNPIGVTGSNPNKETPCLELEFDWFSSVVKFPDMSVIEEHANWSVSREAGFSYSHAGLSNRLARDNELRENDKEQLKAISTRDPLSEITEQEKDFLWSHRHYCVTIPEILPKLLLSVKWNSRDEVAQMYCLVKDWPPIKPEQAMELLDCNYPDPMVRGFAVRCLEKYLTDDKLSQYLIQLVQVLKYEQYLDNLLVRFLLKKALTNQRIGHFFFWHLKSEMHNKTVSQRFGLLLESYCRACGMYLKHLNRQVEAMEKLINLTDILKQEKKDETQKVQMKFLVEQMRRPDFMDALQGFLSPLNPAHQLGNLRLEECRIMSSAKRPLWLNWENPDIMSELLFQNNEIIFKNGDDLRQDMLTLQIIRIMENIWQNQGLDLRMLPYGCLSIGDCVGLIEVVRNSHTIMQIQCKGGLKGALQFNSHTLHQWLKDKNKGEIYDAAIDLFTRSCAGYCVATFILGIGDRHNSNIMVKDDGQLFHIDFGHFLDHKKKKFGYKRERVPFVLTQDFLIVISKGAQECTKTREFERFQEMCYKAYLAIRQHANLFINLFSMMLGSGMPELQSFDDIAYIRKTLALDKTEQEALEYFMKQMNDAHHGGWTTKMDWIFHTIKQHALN

Regarding `O=C1CCCN1C(c1ccc(F)cc1)c1c(O)ccc2ccccc12` (centres undefined), the 50% inhibitory concentration (IC50) (as a rule, the concentration that inhibits the measured activity by half) in experiment [1] is no less than 0.05 µM; in experiment [2] it was 0.981 µM; in experiment [3] it was 6.98 µM. In addition, the “growth inhibition (GI)” value in experiment [2] worked out at 80.23%; in experiment [3], 60.92%. For the same compound, the Activity in experiment [4] was 83%.

In the case of `O=C1CCCN1C(c1ccccc1F)c1c(O)ccc2ccccc12` (centres undefined), the half-maximal inhibitory concentration (IC50) is no less than 5 µM in experiment [1], 4.81 µM in experiment [2] and 14.8 µM in experiment [3]. For the same compound, the “growth inhibition (GI)” value in experiment [2] stood at 60.38%; in experiment [3] it was 37.38%. Moreover, the Activity in experiment [4] came out at 56%.

In experiment [1], `O=C1CCCN1C(c1ccc(Cl)cc1)c1c(O)ccc2ccccc12` (centres undefined) returned an IC50 of less than 25 µM. In addition, in experiment [2], the “growth inhibition (GI)” value was 23.14% and the IC50 came out at 92.2 µM. In experiment [3], the “growth inhibition (GI)” value was “inactive”. The Activity in experiment [4] came out at 42%.

On to `O=C1CCCN1C(c1ccccc1Cl)c1c(O)ccc2ccccc12` (centres undefined), for which the 50% inhibitory concentration (IC50) in experiment [1] was no less than 5 µM; in experiment [2], 6.58 µM; in experiment [3] it was 26.6 µM. For the same compound, the entries for the “growth inhibition (GI)” value in experiment [2] and in experiment [3] were 55.01% and 40.12%, respectively. Also, the Activity in experiment [4] amounted to 55%.

In the case of `N#Cc1ccc(C(c2c(O)ccc3ccccc23)N2CCCC2=O)cc1` (centres undefined), the IC50 in experiment [1] is no less than 25 µM. Further, in experiment [2], the “growth inhibition (GI)” value is on record as 33.41% and the IC50 was 80.3 µM. For the same compound, in experiment [3], the “growth inhibition (GI)” value is “inactive”. Besides, the Activity in experiment [4] was 28%.

For `COc1ccccc1C(c1c(O)ccc2ccccc12)N1CCCC1=O` (centres undefined), in experiment [1], the IC50 was no less than 25 µM. In addition, in experiment [2], the “growth inhibition (GI)” value came to 21.81% and the 50% inhibitory concentration (IC50) came to 92.1 µM. Also, the “growth inhibition (GI)” value in experiment [3] was “inactive”. The Activity in experiment [4] amounted to 22%.

As for `O=C1CCCN1C(c1cccc2ccccc12)c1c(O)ccc2ccccc12` (centres undefined), the 50% inhibitory concentration (IC50) in experiment [1] is less than 5 µM; in experiment [2], 4.47 µM; in experiment [3] it was 24.8 µM. For the same compound, the entries for the “growth inhibition (GI)” value in experiment [2] and in experiment [3] were 60.46% and 36.14%, respectively. Moreover, in experiment [4], the Activity came to 59%.

For the compound `COc1cccc(C(c2c(O)ccc3ccccc23)N2CCCC2=O)c1` (centres undefined), the IC50 in experiment [1] is no less than 15 µM; in experiment [2], 15.2 µM; in experiment [3], 15.2 µM. Also, the entries for the “growth inhibition (GI)” value in experiment [2] and in experiment [3] were 39.71% and 24.55%, respectively. The Activity in experiment [4] is 46%.

Consider `O=C1CCCN1C(c1cccs1)c1c(O)ccc2ccccc12` (centres undefined), for which, in experiment [1], the IC50 is no less than 25 µM. For the same compound, in experiment [2], the “growth inhibition (GI)” value amounted to 30.01% and the half-inhibitory concentration (IC50) was 81.1 µM. The “growth inhibition (GI)” value in experiment [3] is “inactive”. For the same compound, in experiment [4], the Activity stood at 24%.

As to `COC[C@H]1OC(=O)c2coc3c2[C@@]1(C)C1=C(C3=O)[C@@H]2CCC(=O)[C@@]2(C)C[C@H]1OC(C)=O`, in experiment [4], the Activity was 76%.

In turn, `O=C1CCCN1C(c1ccccc1)c1c(O)ccc2ccccc12` (centres undefined) gave an IC50 in experiment [1] of no less than 25 µM. In experiment [2], the “growth inhibition (GI)” value came out at 25.46% and the IC50 amounted to 82.2 µM. For the same compound, the “growth inhibition (GI)” value in experiment [3] was “inactive”. In experiment [4], the Activity stood at 32%.

Turning to `O=C1CCCN1C(c1ccc(Br)cc1)c1c(O)ccc2ccccc12` (centres undefined), the IC50 is no less than 15 µM in experiment [1], 16.6 µM in experiment [2] and 17.6 µM in experiment [3]. Further, the figures for the “growth inhibition (GI)” value in experiment [2] and in experiment [3] were 41.22% and 20.22%, respectively. In experiment [4], the Activity amounted to 44%.

Take `O=C1CCCN1C(c1ccccc1Br)c1c(O)ccc2ccccc12` (centres undefined): the 50% inhibitory concentration (IC50) is no less than 0.05 µM in experiment [1], 1.03 µM in experiment [2] and 12.9 µM in experiment [3]. The “growth inhibition (GI)” value stood at 76.06% in experiment [2] and 48.12% in experiment [3]. The Activity in experiment [4] is 79%.

Turning to `O=C1CCCN1C(c1ccc(O)cc1)c1c(O)ccc2ccccc12` (centres undefined), the IC50 is no less than 25 µM in experiment [1], 31 µM in experiment [2] and 31 µM in experiment [3]. Further, the “growth inhibition (GI)” value in experiment [2] is on record as 30.98%; in experiment [3] it was 28.14%. The Activity in experiment [4] was 28%.

As for `Cc1ccc(C(c2c(O)ccc3ccccc23)N2CCCC2=O)cc1` (centres undefined), the half-inhibitory concentration (IC50) was less than 5 µM in experiment [1], 4.81 µM in experiment [2] and 24.8 µM in experiment [3]. Further, the “growth inhibition (GI)” value is given as 56.46% in experiment [2] and 26.28% in experiment [3]. The Activity in experiment [4] was found to be 52%.

As for `COc1cccc2c1C(=O)c1c(O)c3c(c(O)c1C2=O)C[C@@](O)(C(=O)CO)C[C@@H]3O[C@H]1C[C@H](N)[C@H](O)[C@H](C)O1` [DOXORUBICIN], the “growth inhibition (GI)” value in experiment [2] turned out to be 77.98%. Also, the “growth inhibition (GI)” value in experiment [3] is “inactive”.

Consider `O=C1CCCN1C(c1ccc(O)cc1O)c1c(O)ccc2ccccc12` (centres undefined), for which the IC50 in experiment [1] is no less than 25 µM. In experiment [2], the “growth inhibition (GI)” value is 35.02% and the IC50 is 84.7 µM. For the same compound, in experiment [3], the “growth inhibition (GI)” value was “inactive”. Moreover, in experiment [4], the Activity came out at 22%.

Turning to `COc1ccc(C(c2c(O)ccc3ccccc23)N2CCCC2=O)cc1` (centres undefined), the IC50 in experiment [1] is no less than 10 µM; in experiment [2] it was 12 µM; in experiment [3] it was 12 µM. The “growth inhibition (GI)” value in experiment [2] was 38.98%; in experiment [3], 56.44%. Further, the Activity in experiment [4] was 38%.

Turning to `O=C1CCCN1C(c1ccc(Cl)cc1Cl)c1c(O)ccc2ccccc12` (centres undefined), the IC50 in experiment [1] was less than 1 µM; in experiment [2], 4.23 µM; in experiment [3], 14.2 µM. The “growth inhibition (GI)” value in experiment [2] came to 61.71%; in experiment [3] it was 28.26%. Also, the Activity in experiment [4] was 62%.
